# Literature values, collected in patent US20090047245A1, “Prognostic chronic hepatitis C biomarkers” (priority 2007, published 2009).
# Test system: HCV
smiles,measurement,setting,value
NC(=O)c1ncn([C@@H]2O[C@H](CO)[C@@H](O)[C@H]2O)n1 [ribavirin],increase of the sustained response rate,ribavirin added to interferon,two- to three-fold
same,effect on HCV,ribavirin by itself,little effect on HCV
